Data: ChEMBL document CHEMBL1134610, “Flavonolignan and flavone inhibitors of a Staphylococcus aureus multidrug resistance pump: structure-activity relationships” (2001)
The source made the active and inactive calls. The rule behind the calls is not given here.

The compounds below were run on Staphylococcus aureus (assay: Minimum inhibitory concentration, that inhibits growth of Staphylococcus aureus in the presence of subinhibitory (30 ug/mL) Berberine).
Type: functional
For `COc1ccc(-c2cc(=O)c3c(O)cc(O)cc3o2)cc1O` [DIOSMETIN], the MIC was 15 µg/mL. `COc1cc([C@H]2Oc3ccc(-c4cc(=O)c5c(O)cc(O)cc5o4)cc3O[C@@H]2CO)cc(OC)c1O` showed an MIC of 7.8 µg/mL. `COc1cc([C@H]2Oc3cc([C@H]4Oc5cc(O)cc(O)c5C(=O)[C@@H]4O)ccc3O[C@@H]2CO)ccc1O` [SILYBIN A] gave an MIC of 12.5 µg/mL. For `CCOc1ccc(-c2cc(=O)c3ccccc3o2)cc1`, the MIC was 1.6 µg/mL. Work on `COc1cc([C@@H]2Oc3ccc4c(=O)cc(-c5ccc(O)cc5)oc4c3O[C@H]2CO)ccc1O` yielded an MIC of 0.6 µg/mL. Compound `COc1cc([C@H]2Oc3cc([C@@H]4CC(=O)c5c(O)cc(O)cc5O4)ccc3O[C@@H]2CO)ccc1O` has an MIC of 3.1 µg/mL. `O=c1cc(-c2ccc(OCCO)cc2)oc2ccccc12` was tested, and the MIC was 25 µg/mL. `COc1cc([C@H]2Oc3cc(-c4cc(=O)c5ccccc5o4)ccc3O[C@@H]2CO)ccc1O` gave an MIC of 0.08 µg/mL. `COc1cc([C@H]2Oc3cc(-c4cc(=O)c5c(O)cc(O)cc5o4)cc(OC)c3O[C@@H]2CO)ccc1O` showed an MIC of 2 µg/mL. `COc1cc([C@H]2Oc3cc(-c4oc5cc(O)ccc5c(=O)c4O)ccc3O[C@@H]2CO)ccc1O` gave an MIC of 163 µg/mL. `O=c1cc(-c2ccccc2)oc2cc(O)cc(O)c12` [CHRYSIN] showed an MIC of 25 µg/mL. `COc1cc([C@H]2Oc3ccc(-c4cc(=O)c5c(O)cc(O)cc5o4)cc3O[C@@H]2CO)ccc1O` was tested, and the MIC was 3.1 µg/mL. `CCCOc1ccc(-c2cc(=O)c3ccccc3o2)cc1` gave an MIC of 0.4 µg/mL. With `COc1ccc(-c2cc(=O)c3ccccc3o2)cc1` [4'-METHOXYFLAVONE] the MIC was 6.3 µg/mL. Compound `COc1cc(OC)c2c(=O)cc(-c3ccccc3)oc2c1` [CHRYSIN DIMETHYL ETHER] has an MIC of 25 µg/mL. For `COc1cc([C@H]2Oc3cc([C@@H]4CC(=O)c5c(OC(C)=O)cc(OC(C)=O)cc5O4)ccc3O[C@@H]2COC(C)=O)ccc1OC(C)=O`, the MIC was 1.6 µg/mL. Compound `C=CCOc1ccc(-c2cc(=O)c3ccccc3o2)cc1` has an MIC of 6.3 µg/mL. In the case of `COc1cc([C@H]2Oc3cc(-c4cc(=O)c5ccc(OC(C)=O)cc5o4)ccc3O[C@@H]2COC(C)=O)ccc1OC(C)=O`, the MIC is reported as 1.6 µg/mL. `COc1cc([C@H]2Oc3cc(-c4cc(=O)c5c(OC(C)=O)cc(OC(C)=O)cc5o4)ccc3O[C@@H]2COC(C)=O)ccc1OC(C)=O` showed an MIC of 0.1 µg/mL. For `COc1cc([C@H]2Oc3cc([C@@H]4CC(=O)c5c(O)cc(O)cc5O4)cc(OC)c3O[C@@H]2CO)ccc1O`, the MIC was 1.9 µg/mL. With `COc1cc([C@H]2Oc3cc(-c4cc(=O)c5c(O)cc(O)cc5o4)ccc3O[C@@H]2CO)cc(OC)c1O` the MIC was 8 µg/mL. Work on `COc1cc([C@H]2Oc3cc(-c4cc(=O)c5c(O)cc(O)cc5o4)ccc3O[C@@H]2CO)ccc1O` [HYDNOCARPIN] yielded an MIC of 0.1 µg/mL. Compound `CC(C)Oc1ccc(-c2cc(=O)c3ccccc3o2)cc1` has an MIC of 1.9 µg/mL. For `COc1cc([C@H]2Oc3cc(-c4cc(=O)c5ccc(O)cc5o4)ccc3O[C@@H]2CO)ccc1O`, the MIC was 0.8 µg/mL. `COc1ccc(-c2cc(=O)c3ccccc3o2)cc1OC` [3',4'-DIMETHOXYFLAVONE] gave an MIC of 6.3 µg/mL. For `COc1cc([C@@H]2Oc3ccc4c(=O)cc(-c5ccccc5)oc4c3O[C@H]2CO)ccc1O`, the MIC was 1.9 µg/mL.

These compounds were tested on Staphylococcus aureus (assay: Minimum inhibitory concentration, that inhibits growth of Staphylococcus aureus in the presence of subinhibitory (30 ug/mL) Berberine Inactive).
Type: functional, organism-based
For `COc1cc([C@H]2Oc3cc(-c4oc5cc(OC(C)=O)cc(OC(C)=O)c5c(=O)c4OC(C)=O)ccc3O[C@@H]2COC(C)=O)ccc1OC(C)=O`, the IA was “inactive”.

Each compound was assayed on Staphylococcus aureus (assay: Minimum inhibitory concentration, that inhibits growth of Staphylococcus aureus in the presence of subinhibitory (30 ug/mL) Berberine; Inactive).
Type: functional, organism-based
In the case of `O=c1c(O)c(-c2ccc(O)c(O)c2)oc2cc(O)cc(O)c12`, the IA is reported as “inactive”. In the case of `O=c1cc(-c2ccc(O)cc2)oc2ccccc12`, the IA is reported as “inactive”. `COc1cc(OC)c2c(=O)cc(-c3ccc(OC)c(OC)c3)oc2c1` was tested, and the IA was “inactive”. `O=c1cc(-c2ccccc2)oc2c(O)c(O)ccc12` was tested, and the IA was “inactive”. With `O=c1cc(-c2ccc(O)c(O)c2)oc2cc(O)cc(O)c12` the IA was “inactive”. In the case of `COc1cc([C@H]2Oc3cc(-c4oc5cc(O)cc(O)c5c(=O)c4O)ccc3O[C@@H]2CO)ccc1O`, the IA is reported as “inactive”. For `CC(=O)Oc1cc(OC(C)=O)c2c(=O)cc(-c3ccc(OC(C)=O)c(OC(C)=O)c3)oc2c1`, the IA was “inactive”. With `O=c1cc(-c2ccc(O)c(O)c2)oc2cc(O)ccc12` the IA was “inactive”. In the case of `O=c1cc(-c2ccc(O)cc2)oc2c(O)c(O)ccc12`, the IA is reported as “inactive”. In the case of `O=c1cc(-c2ccc(OCc3ccccc3)cc2)oc2ccccc12`, the IA is reported as “inactive”. For `O=c1cc(-c2ccc3c(c2)O[C@H](c2ccc(O)cc2)[C@@H](CO)O3)oc2cc(O)cc(O)c12`, the IA was “inactive”. `CCCCCCCCCOc1ccc(-c2cc(=O)c3ccccc3o2)cc1` was tested, and the IA was “inactive”. `CC(=O)Oc1ccc2c(=O)cc(-c3ccc(OC(C)=O)c(OC(C)=O)c3)oc2c1` was tested, and the IA was “inactive”.
